Laboratory results taken from ChEMBL document CHEMBL4689842, “EUbOPEN Chemogenomics Library wave 1” (2021).

Key:
Type in all cases: toxicity, cell-based
[1] = system: HEK-293T; assay: Incucyte cell viability with HEK293T; settings: human, 10 µM, compound concentration 10 uM
[2] = system: Fibroblast; assay: Incucyte cell viability with human fibroblast; settings: 10 µM, compound concentration 10 uM
[3] = system: U2OS; assay: Incucyte cell viability with U2OS; settings: human, 10 µM, compound concentration 10 uM
[4] = 0 h, replicate number 1, timepoint 0 hours
[5] = 0 h, replicate number 2, timepoint 0 hours
[6] = 6 h, replicate number 1, timepoint 6 hours
[7] = 12 h, replicate number 1, timepoint 12 hours
[8] = 12 h, replicate number 2, timepoint 12 hours
[9] = 18 h, replicate number 1, timepoint 18 hours
[10] = 18 h, replicate number 2, timepoint 18 hours
[11] = 24 h, replicate number 1, timepoint 24 hours
[12] = 24 h, replicate number 2, timepoint 24 hours
[13] = 6 h, replicate number 2, timepoint 6 hours
Further: filed as whole numbers so only -1 and 0 and 1 occur.

Compound	Growth Rate [1, 4]	Growth Rate [1, 5]	Growth Rate [1, 6]	Growth Rate [1, 7]	Growth Rate [1, 8]	Growth Rate [1, 9]	Growth Rate [1, 11]	Growth Rate [1, 12]	Growth Rate [2, 4]	Growth Rate [2, 6]	Growth Rate [2, 7]	Growth Rate [2, 9]	Growth Rate [2, 11]	Growth Rate [3, 7]	Growth Rate [3, 8]	Growth Rate [3, 9]	Growth Rate [3, 11]	Growth Rate [2, 13]	Growth Rate [3, 4]	Growth Rate [3, 6]	also measured
N#CC(Cc1ccc(O)cc1)c1ccc(O)cc1 (configuration not stated) [DIARYLPROPIONITRILE]	1	0	1	0	1	0	0	1	0	0	0	0	0	1	0	0	1	–	–	–	Growth Rate [1, 10]: 1; Growth Rate [3, 13]: 0; Growth Rate [3, 12]: 0
COc1ccc(Cn2ccc3ccc(C(=O)NO)cc32)cc1	0	1	–	–	–	–	–	–	0	–	–	1	1	1	0	1	0	1	0	0	Growth Rate [2, 8]: 1; Growth Rate [2, 10]: 0; Growth Rate [3, 5]: 1
O=C(NCc1ncc(C(F)(F)F)cc1Cl)c1ccc2c(c1)C1(CCS(=O)(=O)CC1)[C@H](C1CC1)N2S(=O)(=O)c1ccc(F)cc1 [BAY-784]	0	–	1	1	0	1	1	0	0	0	1	–	1	0	1	0	0	–	0	1	Growth Rate [1, 10]: 0; Growth Rate [2, 10]: 1; Growth Rate [3, 13]: 0; Growth Rate [3, 12]: 1
CNCCN1CCC(OCc2ccccc2)CC1	1	0	–	–	1	1	1	–	–	0	0	0	1	1	–	1	1	1	–	1	Growth Rate [1, 13]: 1; Growth Rate [2, 5]: 0; Growth Rate [2, 8]: 1; Growth Rate [3, 5]: 0
CN([C@@H]1CCc2c(CC(=O)O)c3cc(S(C)(=O)=O)ccc3n2C1)S(=O)(=O)c1ccc(F)cc1 [CRTH2-negative-control]	1	0	0	0	1	0	0	1	0	–	1	1	1	1	0	0	0	0	0	0	Growth Rate [1, 13]: 1; Growth Rate [1, 10]: 1; Growth Rate [2, 8]: 0; Growth Rate [2, 10]: 0; Growth Rate [2, 12]: 0; Growth Rate [3, 10]: 1
CCn1cc(-c2cccc(C(F)(F)F)c2)c2sc(C(=N)NC3CCS(=O)(=O)CC3)cc2c1=O	–	–	0	0	–	0	0	–	–	0	0	0	0	0	–	0	0	–	–	1	Growth Rate [2, 12]: 1; Growth Rate [3, 5]: 0; Growth Rate [3, 10]: 1; Growth Rate [3, 12]: 1
CC[C@@H]1[C@H](F)C(=O)N[C@@H]1COc1nccc2cc(C(N)=O)c(OC)cc12 [ZIMLOVISERTIB]	0	–	–	–	1	–	–	1	–	0	0	0	0	0	–	0	0	–	0	0	Growth Rate [2, 5]: 0; Growth Rate [3, 13]: 1
CN(C)C(=O)c1ccc(-c2cc(C(=O)N[C@@H]3CCc4ccccc43)no2)cc1O	1	–	–	–	0	–	1	–	0	1	0	1	0	0	1	0	1	–	0	0	Growth Rate [1, 13]: 0; Growth Rate [2, 12]: 1; Growth Rate [3, 10]: 1
C[C@H]1CC(=O)Nc2cc(C(=O)NCCC3CC3)ccc2N1C(=O)N1CC2CC2C1 (some centres not stated)	0	1	–	–	0	1	0	1	0	0	1	0	1	1	–	1	1	–	1	0	Growth Rate [1, 13]: 1; Growth Rate [2, 8]: 0; Growth Rate [2, 12]: 0
CCCCN1CCC(COC(=O)c2cc(Cl)c(N)c3c2OCCO3)CC1.Cl	1	0	0	0	1	0	0	–	0	–	–	1	1	1	0	1	1	0	1	1	Growth Rate [1, 13]: 1; Growth Rate [1, 10]: 1; Growth Rate [2, 8]: 0; Growth Rate [2, 10]: 0; Growth Rate [2, 12]: 0; Growth Rate [3, 13]: 0; Growth Rate [3, 10]: 0; Growth Rate [3, 12]: 0
CC(C)S(=O)(=O)c1ccc2nccc(Nc3ccc4scnc4c3)c2c1	–	–	0	0	–	0	0	–	–	0	0	0	0	1	–	0	1	–	1	0	Growth Rate [2, 5]: 0; Growth Rate [3, 5]: 0; Growth Rate [3, 10]: 1
C[C@H](c1ccc(F)cc1)N(Cc1ccc(Cl)c(C(=O)O)c1)C(=O)c1cnc2ccccc2c1 [PF-05257137]	1	0	0	0	–	0	1	0	0	–	–	–	1	1	–	1	1	0	0	–	Growth Rate [2, 8]: 1; Growth Rate [2, 10]: 1
CS(=O)(=O)NC[C@H]1CC[C@H](Nc2nc3c(s2)CCSc2ccccc2-3)CC1	–	0	0	0	–	0	0	–	0	0	1	1	0	0	1	0	1	–	0	0	–
O=C(c1ccc(F)cc1)N1CC(COc2ccc(Br)cc2)(C(=O)O)C1 [PF-04475866]	0	–	1	1	0	0	1	0	0	–	–	–	1	1	–	0	1	–	1	1	Growth Rate [1, 13]: 0; Growth Rate [2, 10]: 1; Growth Rate [3, 5]: 0; Growth Rate [3, 10]: 1
O=C(NCc1ccccc1)c1ccc(S(=O)(=O)NCc2ccccc2)cc1	0	–	0	1	–	1	0	1	0	0	0	1	0	1	–	0	1	1	–	0	Growth Rate [1, 13]: 1; Growth Rate [2, 8]: 1; Growth Rate [2, 10]: 0; Growth Rate [3, 5]: 1; Growth Rate [3, 12]: 0
CNC(=NCCSCc1csc(N=C(N)N)n1)NC#N [TIOTIDINE]	1	0	0	1	0	0	0	–	0	1	0	0	0	1	0	0	1	0	0	–	Growth Rate [3, 13]: 0; Growth Rate [3, 10]: 1
